SMILES strings stand for the structures.

Series [1] deals with cancer cell lines (pancreatic cancer cell line ASPC-1, lung cancer cell line A549, breast cancer cell line MCF-7, colorectal cancer cell line HCT 116). Nature of the series: Test for inhibition of growth of cancer cell lines (WST-8 cell viability assay). The format is cell-based, humans. On the procedure: Pancreatic cancer cell lines ASPC-1, lung cancer cell lines A549, breast cancer cell lines MCF-7, and colorectal cancer cell lines HCT 116 of humans were distributed by Korean Cell Line Bank (KCLB, Seoul in Korea) and grown using culture media. Fetal bovine serum (FBS), 0.1 mM MEM nonessential amino acid (NEAA), 2 mM L-glutamine, and 1 % of penicillin-streptomycin were treated with trypsin every two-three days in a humidified cell culture incubator containing 5 % of CO2 at 37° C. by using DMEM and a 10 % culture flask according to guidelines provided by the KCLB, to subculture cells. […] After 24 hours, each of the nine sorts of compounds in table 2 was added to the well under six concentration conditions and was incubated for 24 hours. After the incubation, the culture medium was thrown away, and cell viability in each well was measured according to an instruction of the manufacturer, using a WST-8 cell viability assay kit (Quanti-MaxTM, BIOMAX). The analysis used the principle that the dehydrogenase of living cells decomposes tetrazolium salt to generate formazan, and based on this, the living cells were quantitatively evaluated. Reduced formazan dye (formazan salt) is soluble in the cell culture medium, and the amount of formazan (formazan) was measured using the direct proportionality to the number of viable cells.
On the technique in general: Tetrazolium dyes change colour on reduction, which living cells bring about.

The subject of series [2] is normal lung cell lines MRC-5. Nature of the series: Test for toxicity on normal cell lines (WST-8 cell viability assay). The format is cell-based. Particulars: rating relative to doxorubicin, 0-50 µM, incubated for 24 hours. On the procedure: Normal lung cell lines MRC-5 were distributed by Korean Cell Line Bank (KCLB, Seoul in Korea) and grown using a complete culture medium. Fetal bovine serum (FBS), 0.1 mM MEM nonessential amino acid (NEAA), 2 mM L-glutamine, and 1 % of penicillin-streptomycin were treated with trypsin every two-three days in a humidified cell culture incubator containing 5 % of CO2 at 37° C. by using DMEM and a 10 % culture flask according to guidelines provided by the KCLB, to subculture cells. The culture was incubated until it reached 80-90 % confluence, and the cells continuously moved to the culture flask for a test of inhibition of growth of cancer cell lines.
The normal cell lines (MRC-5) were seeded in 96-well plates at about 7,000 cells per well. […]
After the incubation, the culture medium was thrown away, and cell viability in each well was measured according to an instruction of the manufacturer, using a WST-8 cell viability assay kit (Quanti-MaxTM, BIOMAX).
The analysis used the principle that the dehydrogenase of living cells decomposes tetrazolium salt to generate formazan, and based on this, the living cells were quantitatively evaluated. Reduced formazan dye (formazan salt) is soluble in the cell culture medium, and the amount of formazan (formazan) was measured using the direct proportionality to the number of viable cells.

`CCCSc1ccc2nc(NC3O[C@H](CO)[C@@H](O)[C@H](O)[C@H]3O)[nH]c2c1` (stereo partly drawn) [Albendazole-glucose conjugate (Al-G), 6-(propylthio)-1H-benzoimidazol-2-aminoglucose]: in series [1] (rating relative to doxorubicin, 0-50 µM, incubated for 24 hours), the “Test for inhibition of growth of cancer cell line” value was “C (a C rating denotes a very weak quality (10 times or more))”. In series [2], the “Test for toxicity on normal cell line” value is “AAA (an AAA rating denotes no toxicity (1/30 times or less))”. For the compound `COc1cccc2c1C(=O)c1c(O)c3c(c(O)c1C2=O)C[C@@](O)(C(=O)CO)C[C@@H]3O[C@H]1C[C@H](N)[C@H](O)[C@H](C)O1` [doxorubicin, reference compound], the “total number of cancer cells remained within 24 hours” value in series [1] (concentrations of Table 2 (0-50 µM), 24 hours) is recorded as no less than 70%.

The record behind these values is patent US20230248702A1, “MICELLE COMPRISING BENZIMIDAZOLE-CARBOHYDRATE CONJUGATE COMPOUND, PREPARATION METHOD THEREOF AND USE THEREOF AS ANTICANCER AGENT OR ANTIVIRAL AGENT COMPRISING THE SAME” (BIOMETRIX TECHNOLOGY INC., priority 2021, published 2023).
